Measured values from patent US11839616B2, “Ocular pharmaceutical compositions” (THE REGENTS OF THE UNIVERSITY OF CALIFORNIA, priority 2017, dated 2023).
“Also recorded” adds a separate entry of the source. Read-outs that look alike come from different tables or passages of the source. Each block holds one molecule with its values, some of them ahead of it.

What was measured:
[1] = target: T1, CFTR (Oryctolagus cuniculus, UniProt Q00554); test: open-circuit ocular surface potential difference (PD) in anesthetized rabbits, CFTR; format: in vivo; settings: rabbit
T1 construct: ocular surface PD measurements provide information about CFTR function in its native environment; from tissue; host or cells: rabbit ocular surface in vivo (cornea and conjunctiva); freshly isolated rabbit forniceal and palpebral conjunctiva
T1 sequence (Q00554 whole entry): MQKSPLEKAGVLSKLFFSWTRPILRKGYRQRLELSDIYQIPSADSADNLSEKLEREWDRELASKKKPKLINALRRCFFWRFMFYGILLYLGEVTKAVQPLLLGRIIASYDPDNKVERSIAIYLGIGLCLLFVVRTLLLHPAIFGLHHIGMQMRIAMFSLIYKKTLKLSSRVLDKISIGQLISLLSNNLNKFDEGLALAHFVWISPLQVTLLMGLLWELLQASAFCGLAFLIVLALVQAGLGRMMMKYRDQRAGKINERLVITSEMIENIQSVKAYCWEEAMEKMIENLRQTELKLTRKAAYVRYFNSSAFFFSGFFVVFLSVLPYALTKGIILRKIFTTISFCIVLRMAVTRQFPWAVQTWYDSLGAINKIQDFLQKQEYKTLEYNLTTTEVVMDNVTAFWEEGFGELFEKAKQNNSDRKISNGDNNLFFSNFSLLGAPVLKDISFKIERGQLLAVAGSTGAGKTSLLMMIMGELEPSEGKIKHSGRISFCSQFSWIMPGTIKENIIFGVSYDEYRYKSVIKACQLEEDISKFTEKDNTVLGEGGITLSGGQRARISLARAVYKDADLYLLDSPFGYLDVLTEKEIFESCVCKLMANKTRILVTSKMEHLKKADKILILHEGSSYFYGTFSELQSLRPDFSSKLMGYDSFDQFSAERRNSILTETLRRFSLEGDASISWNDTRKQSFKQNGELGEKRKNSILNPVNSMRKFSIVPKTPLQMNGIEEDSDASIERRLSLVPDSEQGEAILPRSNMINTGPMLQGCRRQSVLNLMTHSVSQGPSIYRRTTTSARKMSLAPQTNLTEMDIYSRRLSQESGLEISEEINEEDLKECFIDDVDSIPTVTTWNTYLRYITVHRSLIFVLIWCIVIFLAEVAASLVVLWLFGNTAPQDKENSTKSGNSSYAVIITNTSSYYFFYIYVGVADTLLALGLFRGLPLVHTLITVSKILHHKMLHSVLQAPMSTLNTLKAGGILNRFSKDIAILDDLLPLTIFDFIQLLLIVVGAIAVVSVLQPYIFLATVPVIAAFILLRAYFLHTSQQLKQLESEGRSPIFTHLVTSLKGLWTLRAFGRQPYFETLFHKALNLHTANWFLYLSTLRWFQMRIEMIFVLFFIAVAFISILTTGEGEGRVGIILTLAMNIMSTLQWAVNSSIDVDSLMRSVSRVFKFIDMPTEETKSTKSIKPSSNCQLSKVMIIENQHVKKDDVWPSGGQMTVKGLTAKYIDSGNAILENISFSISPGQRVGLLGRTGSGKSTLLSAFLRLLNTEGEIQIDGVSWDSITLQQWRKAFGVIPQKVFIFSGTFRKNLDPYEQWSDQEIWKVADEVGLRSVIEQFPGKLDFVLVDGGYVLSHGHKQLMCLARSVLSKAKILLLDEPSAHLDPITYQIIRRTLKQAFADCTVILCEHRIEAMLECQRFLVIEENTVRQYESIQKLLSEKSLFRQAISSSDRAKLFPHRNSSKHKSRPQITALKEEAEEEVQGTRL
Description: Open-circuit transepithelial potential difference (PD, in mV) at the ocular surface was measured continuously in anesthetized rabbits using a procedure modified from that established in mice. […] Rabbits were intubated and anesthetized with isoflurane, and respiratory rate, blood pressure and body temperature were monitored. For PD recording, solutions (see below) were serially perfused at 10 mL/min through PE-90 plastic tubing using a gravity multi-reservoir pinch-valve system (ALA Scientific, Westbury, NY) and a variable-flow peristaltic pump (medium flow model; Thermo Fisher Scientific, Fair Lawn, NJ). A probe catheter was fixed onto an adjustable stereotaxic frame with the tip immersed in solution contacting the ocular surface. Excess fluid was aspirated by continuous suction (low-powered wall vacuum) using ⅛-inch tubing (inner diameter 3/32 inch) positioned 3 mm from the orbit in order to maintain near-constant perfusate volume in contact with cornea, bulbar conjunctiva and palpebral conjunctiva without fluid runoff. The measuring electrode contacted the perfusion catheter and was connected to a high-impedance voltmeter (IsoMilivolt Meter; World Precision Instruments, Sarasota, FL). The reference electrode was grounded using a winged, 25-gauge needle filled with normal saline inserted subcutaneously in the abdomen. The measuring and reference electrodes consisted of Ag/AgCl with 3 M KCl agar bridges.
All solutions contained 10 M indomethacin to prevent CFTR activation by prostaglandins.

[2] = target: T1, CFTR; test: short-circuit current in freshly isolated rabbit conjunctiva, CFTR; format: cell-based
Description: Short-circuit current was measured in freshly isolated rabbit conjunctiva, as described^16 with modification. Rabbits were euthanized by injection of 150 mg/kg euthasol into the marginal ear vein. The entire eyeball with eyelids intact was removed from the orbit to preserve conjunctival epithelium integrity. Within 10 min a sheet of forniceal and palpebral conjunctiva was dissected, mounted onto a P2304 tissue slider (Physiologic Instruments, San Diego, CA), and placed into the Ussing chamber. The apical and basolateral chambers contained (in mM): 120 NaCl, 3 KCl, 1 CaCl2, 1 MgCl2, 10 glucose, 25 NaHCO3 and 5 HEPES, pH 7.4. […] Hemichambers were connected to a DVC-1000 voltage clamp (World Precision Instruments Inc., Sarasota, FL) via Ag/AgCl electrodes and 3 M KCl agar bridges.
In separate electrophysiological studies, CFTR activation was measured in freshly isolated conjunctiva ex vivo by short-circuit current analysis.

[3] = tested on: rabbits; test: Schirmer Tear Test II after single topical dose (pharmacodynamics); format: in vivo, rabbit
Description: (§1) Tear production was measured using the anesthetized Schirmer Tear Test (STT, Eagle Vision, Memphis TN). To minimize reflex tearing, one drop of 0.5% proparacaine hydrochloride (Akorn, Lake Forest, TL) was placed onto the corneal surface and excess fluid was absorbed at the medial canthus using eye spear sponges (Fine Science Tools, Foster City, CA). After 5 min the notched strip was inserted into the lower lateral conjunctival fornix, maintaining contact with the lateral cornea. The wetted length (mm) of the strip indicated by blue dye appearance was read after 5 min.
Serial STT measurements were done before and at 1, 3, 6, 9, 12 and 24 hours following application of a single 30-μL drop of Compound A formulation (or vehicle alone) into the conjunctival sac. Both eyes received the same treatment to control for potential contralateral effects of a given treatment. Pharmacokinetics and Tissue Distribution
Compound A was tested for its efficacy in augmenting tear fluid production in rabbits. Prior work identified a formulation (0.325% CMC in Ringer's solution containing 0.015% BAC and 1% DMSO) that stably solubilized Compound A and was effective when delivered topically to mice.^15 A single application of 3 nmol Compound A ([…] of a 100 µM solution) increased tear volume by ˜60% for at least 9 hours compared to vehicle (FIG. 3A). […] When 3 nmol of Compound A was delivered in a more viscous formulation containing 0.625% (instead of 0.3%) CMC, to potentially increase Compound A ocular surface residence time, compound efficacy was unchanged (FIG. 3C).

[4] = target: CFTR (Homo sapiens, UniProt P13569); settings: cited from earlier work; for extent of CFTR activation / EC50: cell cultures; for EC50: read-out: EC50 of CFTR activation
Sequence of CFTR (Homo sapiens, UniProt P13569) (P13569 whole entry, species assumed): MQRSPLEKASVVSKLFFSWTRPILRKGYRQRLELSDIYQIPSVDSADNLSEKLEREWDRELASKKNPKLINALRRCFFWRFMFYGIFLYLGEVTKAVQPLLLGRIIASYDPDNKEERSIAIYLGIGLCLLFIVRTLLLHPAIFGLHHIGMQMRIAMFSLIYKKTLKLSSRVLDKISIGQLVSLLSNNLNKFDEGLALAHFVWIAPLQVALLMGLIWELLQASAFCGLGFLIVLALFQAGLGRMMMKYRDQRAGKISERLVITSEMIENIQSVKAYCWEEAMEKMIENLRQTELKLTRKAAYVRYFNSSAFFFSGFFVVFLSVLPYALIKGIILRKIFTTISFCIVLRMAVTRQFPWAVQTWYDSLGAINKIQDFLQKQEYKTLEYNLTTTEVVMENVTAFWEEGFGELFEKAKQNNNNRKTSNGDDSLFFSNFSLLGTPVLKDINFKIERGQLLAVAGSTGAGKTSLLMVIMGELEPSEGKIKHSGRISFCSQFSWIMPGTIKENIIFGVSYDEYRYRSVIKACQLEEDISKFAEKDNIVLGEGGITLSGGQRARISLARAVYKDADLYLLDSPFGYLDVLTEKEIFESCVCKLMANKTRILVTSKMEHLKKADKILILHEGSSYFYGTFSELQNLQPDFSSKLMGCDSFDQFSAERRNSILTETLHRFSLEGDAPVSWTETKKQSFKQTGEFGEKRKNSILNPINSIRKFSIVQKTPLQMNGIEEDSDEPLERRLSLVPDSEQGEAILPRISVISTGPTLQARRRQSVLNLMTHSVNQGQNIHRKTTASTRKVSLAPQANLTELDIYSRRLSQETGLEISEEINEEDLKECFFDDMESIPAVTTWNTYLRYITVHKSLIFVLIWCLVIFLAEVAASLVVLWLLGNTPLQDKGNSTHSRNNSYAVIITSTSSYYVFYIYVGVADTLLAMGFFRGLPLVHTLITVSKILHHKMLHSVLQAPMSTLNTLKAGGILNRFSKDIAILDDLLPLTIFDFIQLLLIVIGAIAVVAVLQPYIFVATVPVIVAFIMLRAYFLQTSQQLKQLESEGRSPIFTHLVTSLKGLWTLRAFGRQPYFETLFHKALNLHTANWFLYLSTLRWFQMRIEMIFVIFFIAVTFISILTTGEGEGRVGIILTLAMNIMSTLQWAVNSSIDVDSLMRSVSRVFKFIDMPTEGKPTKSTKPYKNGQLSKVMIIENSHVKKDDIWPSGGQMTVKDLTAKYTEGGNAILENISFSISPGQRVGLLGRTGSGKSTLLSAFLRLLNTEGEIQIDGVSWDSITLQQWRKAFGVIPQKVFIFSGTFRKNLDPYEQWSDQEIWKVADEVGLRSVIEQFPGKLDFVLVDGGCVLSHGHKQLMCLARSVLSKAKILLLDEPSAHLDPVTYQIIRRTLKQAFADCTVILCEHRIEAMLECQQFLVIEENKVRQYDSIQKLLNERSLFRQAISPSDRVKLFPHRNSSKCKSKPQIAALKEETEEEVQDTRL

[5] = tested on: cAMP; settings: prior studies; cited from earlier work
[6] = tissue levels by LC/MS following chronic administration; format: in vivo; settings: rabbit, 3 nmol twice-daily for 28 days
Description: In chronic treatment studies, Compound A (3 nmol, or formulation control) was given twice daily (8 am and 4 pm) for 28 days. Two mL of blood was collected from the marginal ear vein in EDTA tubes. Rabbits were then euthanized using 150 mg/kg euthasol, and ocular tissues, serum and peripheral organs were collected. Using a surgical microscope, 150 μL of aqueous humor was collected through the peripheral cornea using a 25-gauge needle, and 300 μL of vitreous fluid was aspirated through the pars plana with a 23-gauge needle. Following transcardial perfusion with heparinized phosphate-buffered saline (PBS), eyes were enucleated with lids intact, and the cornea, iris/ciliary body, lens, bulbar, forniceal and palpebral conjunctiva, and retina of both eyes were dissected, weighed, homogenized in 1:4 mixture of water:ethyl acetate (10 mL/1 g tissue) and centrifuged (3000 rpm for 15 min). Plasma, aqueous and vitreous samples were each mixed with 3 volumes of ethyl acetate and centrifuged for 15 min at 13,200 rpm, and the supernatant was evaporated and re-dissolved in HPLC eluent (100 μL of 1:3 water:acetonitrile containing 0.1% formic acid) for LC/MS analysis. Also, brain, kidney, heart and liver were removed, weighed, mixed with 1:4 mixture of water:ethyl acetate (10 mL/1 g tissue), and homogenized. The homogenized samples were vortexed and centrifuged (3000 rpm for 15 min), and the ethyl acetate-containing supernatant was evaporated, and then re-dissolved in HPLC eluent for LC/MS analysis. The lower limit of detection for Compound A was ˜0.2 pg/mg of homogenized tissue or biological fluid, which was defined as giving a signal-to-noise ratio >3.

[7] = tested on: mice; settings: cited from earlier work
[8] = tested on: rabbits; test: chronic administration, ocular toxicity (clinical examination, histology); format: in vivo; settings: rabbit
Description: In chronic treatment studies, eyes were treated twice daily for 28 days as described above. STT, intraocular pressure (IOP), and central corneal thickness were measured on days 0, 7, 14, 21 and 28. Slit lamp examinations were performed on days 0, 14 and 28 by a board-certified ophthalmologist blinded to treatment status. STT was done one hour after the first treatment of the day (9 am). IOP was measured with a Tonolab rebound tonometer (Colonial Medical Supply, Windham, NH). Central corneal thickness was measured using the Corneo-Gage Plus 2 pachymeter (Sonogage Inc., Cleveland, OH). […] One minute later, photographs of the eye were taken with a digital camera and staining was evaluated according to a 12-point scale as described^17: each corneal quadrant was scored in a blinded fashion on a 3-point scale: grade 0, no staining; grade 1, sporadic staining (involving <25% of the total surface); grade 2, diffuse punctate staining (25-75%); and grade 3, coalesced punctate staining (≥75%). The total grade is reported as the sum of scores from all 4 quadrants, ranging from 0 to 12. Conjunctival congestion, chemosis, discharge, corneal haze or neovascularization, anterior chamber cellular reaction or flare, iris neovascularization, lens opacification or loss of red reflex, were each rated using a modified McDonald-Shadduck scale on a four-point scale, where zero is normal.
A subset of chronically treated eyes were enucleated with eyelids intact after transcardial perfusion with PBS followed by 4% paraformaldehyde, and left overnight in 4° C. in 30% sucrose. […] Cryosections (8 μm thickness) were stained with hematoxylin and eosin (H&E) using a standard protocol.

[9] = liver; in vitro microsomal stability; cited from earlier work
[10] = tested on: rabbits; test: chronic administration, tear volume by STT; format: in vivo; settings: rabbit, 3 nmol twice-daily for 28 days
Description: as §1
In chronic treatment studies, Compound A (3 nmol, or formulation control) was given twice daily (8 am and 4 pm) for 28 days. Two mL of blood was collected from the marginal ear vein in EDTA tubes. Rabbits were then euthanized using 150 mg/kg euthasol, and ocular tissues, serum and peripheral organs were collected. […]
In chronic treatment studies, eyes were treated twice daily for 28 days as described above. STT, intraocular pressure (IOP), and central corneal thickness were measured on days 0, 7, 14, 21 and 28. […] IOP was measured with a Tonolab rebound tonometer (Colonial Medical Supply, Windham, NH). Central corneal thickness was measured using the Corneo-Gage Plus 2 pachymeter (Sonogage Inc., Cleveland, OH). […]

[11] = tested on: CFTR-deficient mice; settings: cited from earlier work
[12] = pharmacokinetics in tear fluid by LC/MS; format: in vivo; settings: rabbit
Description: Compound A was quantified by liquid chromatography/mass spectroscopy (LC/MS) at 15 min, 1 hour, 2 hours, 6 hours and 24 hours after a single, 3-nmol topical dose. To recover Compound A at indicated times, three eye washes of 30 μL sterile PBS were done with solution recovered from the lateral and medial canthi after manual eyelid blinking using 50-μL glass capillary tubes. Pooled washes were diluted in three volumes of ethyl acetate, centrifuged at 13,000 rpm for 15 min, and the collected supernatant was analyzed by LC/MS (Waters 2695 HPLC with Micromass ZQ).^14 LC was done on an Xterra MS C18 column (2.1 mm×100 mm, 3.5 μm) with 0.2 mL/min water/acetonitrile containing 0.1% formic acid, 12 min linear gradient, 5-95% acetonitrile.
Corresponding compound concentrations in tear fluid (open circles, right ordinate) were estimated using tear volumes deduced from STT measurements in FIG. 2A.

[13] = tested on: mice; settings: lacrimal gland ablation, three times daily; cited from earlier work
[14] = tested on: ENaC; test: short-circuit current in freshly isolated rabbit conjunctiva, amiloride; settings: amiloride 10 μM
Description: Short-circuit current was measured in freshly isolated rabbit conjunctiva, as described^16 with modification. Rabbits were euthanized by injection of 150 mg/kg euthasol into the marginal ear vein. The entire eyeball with eyelids intact was removed from the orbit to preserve conjunctival epithelium integrity. Within 10 min a sheet of forniceal and palpebral conjunctiva was dissected, mounted onto a P2304 tissue slider (Physiologic Instruments, San Diego, CA), and placed into the Ussing chamber. The apical and basolateral chambers contained (in mM): 120 NaCl, 3 KCl, 1 CaCl2, 1 MgCl2, 10 glucose, 25 NaHCO3 and 5 HEPES, pH 7.4. Solutions were bubbled with 95% O2/5% CO2 and maintained at 37° C. Hemichambers were connected to a DVC-1000 voltage clamp (World Precision Instruments Inc., Sarasota, FL) via Ag/AgCl electrodes and 3 M KCl agar bridges.

[15] = tested on: ENaC; test: open-circuit ocular surface potential difference (PD) in anesthetized rabbits, ENaC; settings: rabbit, normal Cl- solution with amiloride 100 μM
Description: Open-circuit transepithelial potential difference (PD, in mV) at the ocular surface was measured continuously in anesthetized rabbits using a procedure modified from that established in mice. […] Rabbits were intubated and anesthetized with isoflurane, and respiratory rate, blood pressure and body temperature were monitored. For PD recording, solutions (see below) were serially perfused at 10 mL/min through PE-90 plastic tubing using a gravity multi-reservoir pinch-valve system (ALA Scientific, Westbury, NY) and a variable-flow peristaltic pump (medium flow model; Thermo Fisher Scientific, Fair Lawn, NJ). A probe catheter was fixed onto an adjustable stereotaxic frame with the tip immersed in solution contacting the ocular surface. Excess fluid was aspirated by continuous suction (low-powered wall vacuum) using ⅛-inch tubing (inner diameter 3/32 inch) positioned 3 mm from the orbit in order to maintain near-constant perfusate volume in contact with cornea, bulbar conjunctiva and palpebral conjunctiva without fluid runoff. The measuring electrode contacted the perfusion catheter and was connected to a high-impedance voltmeter (IsoMilivolt Meter; World Precision Instruments, Sarasota, FL). The reference electrode was grounded using a winged, 25-gauge needle filled with normal saline inserted subcutaneously in the abdomen. […]

[16] = target: P2Y2 receptors (Homo sapiens, UniProt P41231); settings: phase III trials in the United States; cited from earlier work
Sequence of P2Y2 receptors (P41231 whole entry): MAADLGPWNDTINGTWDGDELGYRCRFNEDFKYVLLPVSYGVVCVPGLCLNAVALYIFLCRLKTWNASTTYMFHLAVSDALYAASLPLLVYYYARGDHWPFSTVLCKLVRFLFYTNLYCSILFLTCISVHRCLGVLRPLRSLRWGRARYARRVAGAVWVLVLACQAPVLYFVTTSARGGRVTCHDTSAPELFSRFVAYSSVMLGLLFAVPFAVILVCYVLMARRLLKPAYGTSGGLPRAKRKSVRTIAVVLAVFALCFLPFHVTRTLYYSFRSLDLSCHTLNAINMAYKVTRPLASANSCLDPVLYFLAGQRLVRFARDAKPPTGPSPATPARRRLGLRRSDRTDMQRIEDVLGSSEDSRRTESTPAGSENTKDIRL

[17] = rabbit, single topical dose of 3 nmol
[18] = 25 picomol topical administration

effect on the PD changes ([1]; CFTRinh-172 10 μM in final perfusion solution): largely reversed
effect on the increases in short-circuit current ([2]; inhibitor added last): inhibited
Molecule: 3-[(3-Trifluoromethyl)phenyl]-5-[(4-carboxyphenyl)methylene]-2-thioxo-4-thiazolidinone [CFTRinh-172, reference compound]

level in aqueous and vitreous fluid, lens and iris/ciliary body [6]: near or below the limit of detection
level in blood, heart, brain, liver and kidney [6]: below the limit of detection
level in vitreous fluid [6]: not detected
rank of levels in ocular tissues [6]: cornea>conjunctiva>>retina
concentration at 28 days ([6]; retina, topical, read-out: level in retina, equivalent concentration): < 10 nM
time to maximal CFTR activation at the ocular surface (PD) ([1]; after exposure): within a few minutes
change in ocular surface PD ([1]; low Cl- + amiloride, Compound A 1 and 10 μM): substantial depolarization
change in short-circuit current ([2]; 1 and then 10 μM Compound A after forskolin 25 nM): further increased
EC50 ([2]; rabbit conjunctiva ex vivo, data at 1 vs. 10 μM, read-out: apparent EC50 of CFTR activation (short-circuit current)): < 1 µM
time at predicted therapeutic concentrations in tear fluid ([12]; 3-nmol dose, concentrations estimated using tear volumes from STT): at least several hours
Compound A recovered from tear fluid over time ([12]; single topical dose of 3 nmol, three eye washes): approximate exponential decline
Molecule: CNc1nc(Nc2ccccc2)nc(OCC(F)(F)C(F)F)n1 [Compound A, N-Methyl-N′-phenyl-6-(2,2,3,3-tetrafluoropropoxy)-1,3,5-triazine-2,4-diamine]
increase in tear fluid volume ([3]; from STT wetting using reported relationship between STT wetting and volume): 2.7 µL
compound efficacy in more viscous formulation ([3]; rabbit, 3 nmol, 0.625% (instead of 0.3%) CMC): unchanged
increase in tear volume compared to vehicle ([3]; rabbit, single application of 3 nmol, 0.3% CMC): ~60%
tear production ([3]; rabbit, single dose 0.75 nmol): no significant increase
activity on tear production ([3]; rabbit, single dose 1.5 nmol): reduced duration of activity
augmentation in tear production by STT, average over 9 hours [3, 17]: 5.3 mm
duration of increase in tear volume / tear secretion [3, 17]: at least 9 hours
extent of CFTR activation [4]: fully activated CFTR
EC50 [4]: ~0.25 µM
potency of CFTR activation ([4]; prior studies): nanomolar potency
elevation of total cellular cAMP [5]: without detectable elevation
duration of doubled tear volume ([7]; delivered topically): four
tear volume ([7]; delivered topically): doubled tear volume
IOP, vehicle vs. treated eyes ([8]; 3 nmol twice-daily for 28 days): No significant differences
Lissamine green staining ([8]; 3 nmol twice-daily for 28 days): no injury to the ocular surface
central corneal thickness, vehicle vs. treated eyes ([8]; 3 nmol twice-daily for 28 days): No significant differences
slit-lamp evaluation ([8]; 3 nmol twice-daily for 28 days): no evidence of conjunctival hyperemia, anterior chamber inflammation, or lens opacification
histology of cornea, conjunctiva, lens, ciliary body, retina ([8]; day 28): no pathological changes
acute ocular irritation (blinking, behavior) ([8]; following topical administrations): No apparent acute ocular irritation
hepatic metabolism [9]: rapidly metabolized by the liver; also recorded: rapid predicted hepatic metabolism
tear volume (STT) [10]: augmented tear volume in a sustained fashion without tachyphylaxis
effect in CFTR-deficient mice [11]: without effect; also recorded: absence of Compound A effect

Molecule: CCN(CC)c1nc(Nc2ccccc2)nc(OC(C(F)(F)F)C(F)(F)F)n1 [Compound C]
extent of CFTR activation [4]: fully activated CFTR
EC50 [4]: ~0.03 µM
duration of increase in tear volume [7, 18]: 8 h
tear volume [7, 18]: sustained increase in tear volume
corneal epithelial disruption [13]: prevented corneal epithelial disruption
pathology when administered after development of dry eye [13]: reversed pathology
tear volume [13]: normalized tear volume

Molecule: N=C(N)NC(=O)c1nc(Cl)c(N)nc1N [amiloride]
effect on short-circuit current [14]: no effect
change in ocular surface PD [15]: initial depolarization

Molecule: O=c1ccn([C@@H]2O[C@H](COP(=O)(O)OP(=O)(O)OP(=O)(O)OP(=O)(O)OC[C@H]3O[C@@H](n4ccc(=O)[nH]c4=O)[C@H](O)[C@@H]3O)[C@@H](O)[C@H]2O)c(=O)[nH]1 [diquafosol]
efficacy in dry eye [16]: did not show efficacy
